“Also recorded” adds a separate entry of the source.
How the values were obtained:
[1] = test system: human mo-DC; test: Expression of MIF receptor and co-receptors by human mo-DC; assay type: cell-based
Protocol: CD44 expression was evaluated by BV-421-labeled monoclonal antibodies and negative controls in the figure refer to unlabeled cells.
Negative controls in the figure refer to unlabeled cells.
The parameters included in the analysis were the expression of HLA-DR (BV-510 labeled mAb), PD-L1 (PE-labeled mAb), CD44 (BV-421-labeled mAb), CD74 (FITC-labeled mAb) and CXCR4 (PE-Cy5-labeled mAb).

[2] = test system: B16F10-Nex2 melanoma; test: Subcutaneous melanoma model; assay type: in vivo, C57BL/6 mice; conditions: i.p. administration
Protocol: Male C57BL/6 mice, 6 to 8-week-old were obtained from the Center for Development of Experimental Models (CEDEME), Federal University of Sao Paulo (UNIFESP). For the in vivo metastatic model, C57BL/6 mice received one intravenous (i.v.) injection of 2×10^5 viable B16-F10-Next melanoma cells in 100 μL. […] The control group received 100 μL PBS. Twenty-two days later, mice (minimum n=3 per group) had their lungs harvested, and the number of macroscopic melanotic nodules were counted. The Ethical Committee of Federal University of São Paulo, Project no. 1234, 2011, approved all experiments with animals, according to International guidelines. For the subcutaneous model, mice were injected with 5×10^5 tumor cells suspended in 100 μL of PBS in the right flank via the subcutaneous route. The peptide (300 μg) was solubilized in 10 μL of distilled H2O and 90 μL of PBS and injected per mouse via the intraperitoneal route. The administration of the peptide was performed in 5 alternate days initiating one day after tumor challenge. Tumor longitudinal diameter (D) and transverse diameter (d) were measured every 2 days until the tumor volume reached 3,000 mm3. Animals were sacrificed when the allowed volume was reached. Volume was calculated using the formula v=Dd^2×0.52. […]

[3] = test system: bone marrow derived dendritic cells; test: CD74 receptor expression in myeloid dendritic cells; assay type: cell-based, mouse; conditions: murine dendritic cells
Protocol: After incubation the cells were stimulated with or without LPS (Sigma-Aldrich, Missouri, USA), at 200 ng/ml or tumor lysate (B16F10-Next cells) in the proportion of 30 DCs to 1 tumor cell, for 24 h. After incubation, the cells were harvested and stained with anti-CD74 (BV786) from BD Bioscience. Stained cells were acquired using LSRFortessa™ (Becton Dickinson, San Jose, Calif., USA) and data analysis was performed using the FlowJo V10 (TreeStar Inc., Ashland, Oreg., USA). The results are represented as percentage of CD74^+ cells in CD11b^+CD11c^+ or CD11c^+MHCII^+ population.
(§1) Protein lysates were separated by electrophoresis, and immunoblotting analyses were performed for: total AKT, total p44/42 MAPK (ERK1/2), total IKKα, total IkBα, total NF-kB p65, phospho-AKT (Ser473), phospho-ERK1/2 (Thr202/Tyr204), phospho-IKKα/β (Ser176/180), phospho-IkBα (Ser32) and phospho-NFkB p65 (Ser536). GAPDH was assayed for loading control. HRP-conjugated secondary antibodies were used, followed by incubation with the ECL substrate (Millipore, Billerica, Mass.). All primary and secondary antibodies were purchased from Cell Signaling Technologies (Beverly, Mass., USA). Anti-CD74 receptor was also assayed (Abcam, Cambridge, UK). Phosphorylation ratios were quantified using ImageJ software. Results are represented in arbitrary units normalized to untreated control lanes.

[4] = test system: colorectal CT26 carcinoma cells; test: Subcutaneous syngeneic colorectal carcinoma model; assay type: in vivo, Balb/c mice; conditions: CT26 of moderate virulence (ATCC, CRL-2638); 300 μg i.p., 5 consecutive days
[5] = test system: Myeloid DCs stimulated with recombinant mouse MIF; test: Western blotting of MIF signalling in dendritic cells pre-treated with peptide; assay type: cell-based
Protocol: as §1
Early incubation with MIF increased p-Akt (Ser473). […] MIF also triggered p-ERK1/2 formation in DCs.

## [CARGETARATFAYWGQGC], NH2 (C-C) [Rb9]
[1]; LPS-stimulated human mo-DC
  CD74^lowCXCR4^low cell subpopulation (tSNE analysis): disappearance of a CD74^lowCXCR4^low cell subpopulation
[1]; LPS-stimulated human mo-DC, 16.7% without peptide
  expression of the MIF co-receptor CXCR4 after treatment: 28.2%
[1]; LPS-stimulated human mo-DC, 56.8% without peptide
  expression of the MIF receptor CD74 after treatment: 87.5%
[1]; TGF-beta+IL-10-treated human mo-DC
  reduction in CD44 intensity (MFI): 20%
[1]; TGF-beta+IL-10-treated human mo-DC, 57% without peptide
  frequency of CD44 positive cells after treatment: 52%
[2]
  response of subcutaneous growing melanoma to peptide: much more resistant; also recorded: resistant
[3]
  expression of CD74 in CD11b+CD11c+ and CD11c+MHC-II+ cells: increased expression
[4]
  subcutaneous tumor growth: significantly delayed
[5]; DCs pre-incubated with peptide 6 h, then rMIF
  ERK1/2 phosphorylation: reduced p-ERK1/2
[5]; DCs pre-incubated with peptide 6 h, then rMIF, early (2 min), vs rMIF alone
  Akt phosphorylation (Ser473): Phosphorylation increased even more
[5]; DCs pre-stimulated 6 h, then recombinant-MIF, 5, 10 and 20 min
  NFkB p65 phosphorylation (Ser536): tended to attenuate the MIF response; also recorded: decreased intracellular NFkB p65 phosphorylation
[5]; DCs pre-stimulated 6 h, then recombinant-MIF, short incubation
  phosphorylation of IKKαβ and IkBα: tended to attenuate the MIF response; also recorded: decreased IKKαβ and IkBα
